# According to ChEMBL document CHEMBL1909046, “DrugMatrix in vitro pharmacology data”:
# Biological target: Mitogen-activated protein kinase 3 (Homo sapiens, UniProt P27361)
# Experiment: DRUGMATRIX: Protein Serine/Threonine Kinase, ERK1 enzyme inhibition (substrate: Myelin Basic Protein)
# Set-up: species or system Escherichia coli
# Conditions: Not Active = under 50% inhibition at 10 µM
# Mitogen-activated protein kinase 3, sequence (P27361 whole entry): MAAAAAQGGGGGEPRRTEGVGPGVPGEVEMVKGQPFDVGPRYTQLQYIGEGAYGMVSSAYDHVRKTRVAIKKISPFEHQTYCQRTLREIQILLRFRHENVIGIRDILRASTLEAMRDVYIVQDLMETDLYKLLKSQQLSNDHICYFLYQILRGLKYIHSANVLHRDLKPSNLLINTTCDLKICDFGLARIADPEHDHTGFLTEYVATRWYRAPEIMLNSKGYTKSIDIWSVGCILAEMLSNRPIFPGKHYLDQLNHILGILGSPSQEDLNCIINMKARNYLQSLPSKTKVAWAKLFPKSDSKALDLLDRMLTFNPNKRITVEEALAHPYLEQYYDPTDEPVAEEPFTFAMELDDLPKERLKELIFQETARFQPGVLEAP
row,SMILES,IC50
1,CSc1ccc2c(c1)N(CCC1CCCCN1C)c1ccccc1S2 (stereo not drawn) [THIORIDAZINE],Not Active
2,NCCCC[C@H](N[C@@H](CCc1ccccc1)C(=O)O)C(=O)N1CCC[C@H]1C(=O)O [LISINOPRIL ANHYDROUS],Not Active
3,COc1cccc(C2(O)CCCCC2CN(C)C)c1 (stereo not drawn) [TRAMADOL],Not Active
4,O=C(CCCN1CCC(O)(c2ccc(Cl)cc2)CC1)c1ccc(F)cc1 [HALOPERIDOL],Not Active
5,CN1CCN2c3ccccc3Cc3ccccc3C2C1 (stereo not drawn) [MIANSERIN],Not Active

# Biological target: T1, Alpha-2C adrenergic receptor (Homo sapiens, UniProt P18825)
# T1 sequence (P18825 whole entry): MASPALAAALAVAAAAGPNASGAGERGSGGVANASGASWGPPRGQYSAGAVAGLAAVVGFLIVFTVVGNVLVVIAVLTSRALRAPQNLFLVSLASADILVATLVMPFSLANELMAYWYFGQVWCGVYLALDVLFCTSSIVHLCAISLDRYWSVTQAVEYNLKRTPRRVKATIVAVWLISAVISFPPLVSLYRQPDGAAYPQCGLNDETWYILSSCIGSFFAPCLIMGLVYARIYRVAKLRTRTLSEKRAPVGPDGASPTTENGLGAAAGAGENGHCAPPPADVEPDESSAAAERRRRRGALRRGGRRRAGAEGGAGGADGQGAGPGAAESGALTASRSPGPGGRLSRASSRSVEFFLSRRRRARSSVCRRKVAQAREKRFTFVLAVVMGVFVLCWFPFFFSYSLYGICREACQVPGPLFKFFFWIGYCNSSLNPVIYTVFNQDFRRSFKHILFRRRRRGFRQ
# Experiment: DRUGMATRIX: Adrenergic Alpha-2C radioligand binding (ligand: [3H] MK-912)
# Type: cell membranes, Sf9, Membrane
# Conditions: read-out: IC50
row,SMILES,IC50
1,CN1CCN2c3ccccc3Cc3ccccc3C2C1 (stereo not drawn) [MIANSERIN],179 nM

# Same assay, conditions: read-out: Ki
row,SMILES,Ki
1,CN1CCN2c3ccccc3Cc3ccccc3C2C1 (stereo not drawn) [MIANSERIN],26 nM

# Same assay, conditions: sf9
row,SMILES,IC50
1,NCCCC[C@H](N[C@@H](CCc1ccccc1)C(=O)O)C(=O)N1CCC[C@H]1C(=O)O [LISINOPRIL ANHYDROUS],Not Active
2,COc1cccc(C2(O)CCCCC2CN(C)C)c1 (stereo not drawn) [TRAMADOL],Not Active

# Biological target: Acetylcholinesterase (Homo sapiens, UniProt P22303)
# Experiment: DRUGMATRIX: Acetylcholinesterase enzyme inhibition (substrate: acetylthiocholine)
# Type: cell-based, HEK293
# Conditions: hek293; Not Active = under 50% inhibition at 10 µM
# Acetylcholinesterase, sequence (P22303 whole entry): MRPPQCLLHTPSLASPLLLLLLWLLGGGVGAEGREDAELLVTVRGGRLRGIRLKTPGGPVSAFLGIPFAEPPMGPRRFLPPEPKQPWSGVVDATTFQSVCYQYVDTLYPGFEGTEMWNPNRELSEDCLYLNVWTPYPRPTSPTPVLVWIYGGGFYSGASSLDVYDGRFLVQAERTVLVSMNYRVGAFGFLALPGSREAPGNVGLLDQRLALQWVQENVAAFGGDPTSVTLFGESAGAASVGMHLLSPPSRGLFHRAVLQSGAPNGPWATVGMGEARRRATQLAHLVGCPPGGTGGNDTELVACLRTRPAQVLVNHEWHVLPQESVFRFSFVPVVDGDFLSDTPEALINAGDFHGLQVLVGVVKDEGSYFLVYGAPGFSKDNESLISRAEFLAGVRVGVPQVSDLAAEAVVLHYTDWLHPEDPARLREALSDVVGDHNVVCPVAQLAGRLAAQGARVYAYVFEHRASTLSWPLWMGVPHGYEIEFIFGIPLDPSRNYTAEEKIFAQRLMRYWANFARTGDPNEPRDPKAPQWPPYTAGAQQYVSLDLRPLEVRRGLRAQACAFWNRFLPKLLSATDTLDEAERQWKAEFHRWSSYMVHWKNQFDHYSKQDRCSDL
row,SMILES,IC50
1,CSc1ccc2c(c1)N(CCC1CCCCN1C)c1ccccc1S2 (stereo not drawn) [THIORIDAZINE],Not Active
2,NCCCC[C@H](N[C@@H](CCc1ccccc1)C(=O)O)C(=O)N1CCC[C@H]1C(=O)O [LISINOPRIL ANHYDROUS],Not Active
3,COc1cccc(C2(O)CCCCC2CN(C)C)c1 (stereo not drawn) [TRAMADOL],Not Active
4,O=C(CCCN1CCC(O)(c2ccc(Cl)cc2)CC1)c1ccc(F)cc1 [HALOPERIDOL],Not Active
5,CN1CCN2c3ccccc3Cc3ccccc3C2C1 (stereo not drawn) [MIANSERIN],Not Active

# Biological target: T2, C-X-C chemokine receptor type 1 (Homo sapiens, UniProt P25024); further: in other assays of this panel Not Active means under 50% inhibition at 10 µM
# T2 sequence (P25024 whole entry): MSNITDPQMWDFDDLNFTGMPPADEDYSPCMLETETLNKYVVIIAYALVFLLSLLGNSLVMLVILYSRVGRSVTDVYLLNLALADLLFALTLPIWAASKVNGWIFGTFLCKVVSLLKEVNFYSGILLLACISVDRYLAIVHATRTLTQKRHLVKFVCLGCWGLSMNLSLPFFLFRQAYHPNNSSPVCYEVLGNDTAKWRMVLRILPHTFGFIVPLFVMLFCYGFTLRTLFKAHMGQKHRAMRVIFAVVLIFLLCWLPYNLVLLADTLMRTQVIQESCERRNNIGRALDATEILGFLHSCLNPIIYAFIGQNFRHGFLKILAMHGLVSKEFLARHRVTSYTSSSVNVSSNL
# Conditions: not given
row,SMILES,IC50
1,CSc1ccc2c(c1)N(CCC1CCCCN1C)c1ccccc1S2 (stereo not drawn) [THIORIDAZINE],Not Active
2,NCCCC[C@H](N[C@@H](CCc1ccccc1)C(=O)O)C(=O)N1CCC[C@H]1C(=O)O [LISINOPRIL ANHYDROUS],Not Active
3,COc1cccc(C2(O)CCCCC2CN(C)C)c1 (stereo not drawn) [TRAMADOL],Not Active
4,O=C(CCCN1CCC(O)(c2ccc(Cl)cc2)CC1)c1ccc(F)cc1 [HALOPERIDOL],Not Active
5,CN1CCN2c3ccccc3Cc3ccccc3C2C1 (stereo not drawn) [MIANSERIN],Not Active

# Biological target: Protein phosphatase 3 catalytic subunit alpha (Homo sapiens, UniProt Q08209);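 further: inhibition of calcineurin (PP2B) enzyme activity, measured with DiFMUP as the substrate; in other assays of this panel Not Active means under 50% inhibition at 10 µM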
# Set-up: species or system Escherichia coli
# Conditions: not given
row,SMILES,IC50
1,CSc1ccc2c(c1)N(CCC1CCCCN1C)c1ccccc1S2 (stereo not drawn) [THIORIDAZINE],Not Active
2,NCCCC[C@H](N[C@@H](CCc1ccccc1)C(=O)O)C(=O)N1CCC[C@H]1C(=O)O [LISINOPRIL ANHYDROUS],Not Active
3,COc1cccc(C2(O)CCCCC2CN(C)C)c1 (stereo not drawn) [TRAMADOL],Not Active
4,O=C(CCCN1CCC(O)(c2ccc(Cl)cc2)CC1)c1ccc(F)cc1 [HALOPERIDOL],Not Active
5,CN1CCN2c3ccccc3Cc3ccccc3C2C1 (stereo not drawn) [MIANSERIN],Not Active

# Biological target: T3, Substance-K receptor (Homo sapiens, UniProt P21452); further: in other assays of this panel Not Active means under 50% inhibition at 10 µM
# T3 sequence (P21452 whole entry): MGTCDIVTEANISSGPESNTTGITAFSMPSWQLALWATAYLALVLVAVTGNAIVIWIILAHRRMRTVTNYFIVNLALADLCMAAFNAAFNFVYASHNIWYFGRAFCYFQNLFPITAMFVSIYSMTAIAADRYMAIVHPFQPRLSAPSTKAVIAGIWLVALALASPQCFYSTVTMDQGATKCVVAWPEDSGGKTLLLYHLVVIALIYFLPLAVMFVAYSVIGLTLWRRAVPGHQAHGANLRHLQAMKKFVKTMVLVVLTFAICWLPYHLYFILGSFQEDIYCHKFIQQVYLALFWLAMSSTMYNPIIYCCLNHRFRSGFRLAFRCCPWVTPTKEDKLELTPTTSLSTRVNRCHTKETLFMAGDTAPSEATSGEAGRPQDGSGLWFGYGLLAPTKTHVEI
# Type: cell membranes, CHO, Membrane
# Conditions: cho
row,SMILES,IC50
1,CSc1ccc2c(c1)N(CCC1CCCCN1C)c1ccccc1S2 (stereo not drawn) [THIORIDAZINE],Not Active
2,NCCCC[C@H](N[C@@H](CCc1ccccc1)C(=O)O)C(=O)N1CCC[C@H]1C(=O)O [LISINOPRIL ANHYDROUS],Not Active
3,COc1cccc(C2(O)CCCCC2CN(C)C)c1 (stereo not drawn) [TRAMADOL],Not Active
4,O=C(CCCN1CCC(O)(c2ccc(Cl)cc2)CC1)c1ccc(F)cc1 [HALOPERIDOL],Not Active
5,CN1CCN2c3ccccc3Cc3ccccc3C2C1 (stereo not drawn) [MIANSERIN],Not Active

# Test system: not listed separately
# Experiment: DRUGMATRIX: GABAA, Chloride Channel, TBOB radioligand binding (ligand: [3H] TBOB)
# Type: cell membranes, Rattus norvegicus, Wistar, Cerebral cortex, Membrane
# Conditions: Not Active = under 50% inhibition at 10 µM
SMILES,IC50,Ki
NCCCC[C@H](N[C@@H](CCc1ccccc1)C(=O)O)C(=O)N1CCC[C@H]1C(=O)O [LISINOPRIL ANHYDROUS],Not Active,Not Active

# Biological target: T4, B2 bradykinin receptor (Homo sapiens, UniProt P30411); further: in other assays of this panel Not Active means under 50% inhibition at 10 µM
# T4 sequence (P30411 whole entry): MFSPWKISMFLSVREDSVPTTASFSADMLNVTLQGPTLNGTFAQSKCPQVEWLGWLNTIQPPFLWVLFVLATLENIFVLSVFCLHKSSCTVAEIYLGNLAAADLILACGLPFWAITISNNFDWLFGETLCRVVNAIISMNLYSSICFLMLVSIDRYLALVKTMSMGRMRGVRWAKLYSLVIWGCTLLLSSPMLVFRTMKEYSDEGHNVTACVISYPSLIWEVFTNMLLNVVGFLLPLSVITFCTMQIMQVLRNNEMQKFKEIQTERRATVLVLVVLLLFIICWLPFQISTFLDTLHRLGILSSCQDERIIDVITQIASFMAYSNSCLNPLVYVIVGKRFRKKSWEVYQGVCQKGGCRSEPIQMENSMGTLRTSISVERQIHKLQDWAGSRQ
# Type: cell membranes, Membrane
# Conditions: chem-1
row,SMILES,IC50
1,CSc1ccc2c(c1)N(CCC1CCCCN1C)c1ccccc1S2 (stereo not drawn) [THIORIDAZINE],Not Active
2,NCCCC[C@H](N[C@@H](CCc1ccccc1)C(=O)O)C(=O)N1CCC[C@H]1C(=O)O [LISINOPRIL ANHYDROUS],Not Active
3,COc1cccc(C2(O)CCCCC2CN(C)C)c1 (stereo not drawn) [TRAMADOL],Not Active
4,O=C(CCCN1CCC(O)(c2ccc(Cl)cc2)CC1)c1ccc(F)cc1 [HALOPERIDOL],Not Active
5,CN1CCN2c3ccccc3Cc3ccccc3C2C1 (stereo not drawn) [MIANSERIN],Not Active

# Biological target: Cannabinoid receptor 1 (Homo sapiens, UniProt P21554); further: in other assays of this panel Not Active means under 50% inhibition at 10 µM
# Type: cell membranes, Membrane
# Conditions: chem-1
# Cannabinoid receptor 1, sequence (P21554 whole entry): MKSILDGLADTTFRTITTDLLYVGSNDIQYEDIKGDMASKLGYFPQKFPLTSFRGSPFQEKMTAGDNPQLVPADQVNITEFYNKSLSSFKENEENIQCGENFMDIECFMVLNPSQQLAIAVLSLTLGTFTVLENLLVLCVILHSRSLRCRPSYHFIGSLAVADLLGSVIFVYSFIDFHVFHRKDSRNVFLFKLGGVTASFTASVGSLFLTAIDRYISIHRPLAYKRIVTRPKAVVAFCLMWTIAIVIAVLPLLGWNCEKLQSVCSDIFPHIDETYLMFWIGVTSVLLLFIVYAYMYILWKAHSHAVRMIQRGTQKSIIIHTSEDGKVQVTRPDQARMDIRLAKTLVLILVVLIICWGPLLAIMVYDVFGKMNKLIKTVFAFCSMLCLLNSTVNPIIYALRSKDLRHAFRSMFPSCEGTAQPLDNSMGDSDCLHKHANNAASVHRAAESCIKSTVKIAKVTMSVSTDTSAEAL
row,SMILES,IC50
1,CSc1ccc2c(c1)N(CCC1CCCCN1C)c1ccccc1S2 (stereo not drawn) [THIORIDAZINE],Not Active
2,NCCCC[C@H](N[C@@H](CCc1ccccc1)C(=O)O)C(=O)N1CCC[C@H]1C(=O)O [LISINOPRIL ANHYDROUS],Not Active
3,COc1cccc(C2(O)CCCCC2CN(C)C)c1 (stereo not drawn) [TRAMADOL],Not Active
4,O=C(CCCN1CCC(O)(c2ccc(Cl)cc2)CC1)c1ccc(F)cc1 [HALOPERIDOL],Not Active
5,CN1CCN2c3ccccc3Cc3ccccc3C2C1 (stereo not drawn) [MIANSERIN],Not Active

# Biological target: Adenosine receptor A2a (Homo sapiens, UniProt P29274)
# Experiment: DRUGMATRIX: Adenosine A2A radioligand binding (ligand: […])
# Type: cell membranes, HEK293, Membrane
# Conditions: hek293; Not Active = under 50% inhibition at 10 µM
# Adenosine receptor A2a, sequence (P29274 whole entry): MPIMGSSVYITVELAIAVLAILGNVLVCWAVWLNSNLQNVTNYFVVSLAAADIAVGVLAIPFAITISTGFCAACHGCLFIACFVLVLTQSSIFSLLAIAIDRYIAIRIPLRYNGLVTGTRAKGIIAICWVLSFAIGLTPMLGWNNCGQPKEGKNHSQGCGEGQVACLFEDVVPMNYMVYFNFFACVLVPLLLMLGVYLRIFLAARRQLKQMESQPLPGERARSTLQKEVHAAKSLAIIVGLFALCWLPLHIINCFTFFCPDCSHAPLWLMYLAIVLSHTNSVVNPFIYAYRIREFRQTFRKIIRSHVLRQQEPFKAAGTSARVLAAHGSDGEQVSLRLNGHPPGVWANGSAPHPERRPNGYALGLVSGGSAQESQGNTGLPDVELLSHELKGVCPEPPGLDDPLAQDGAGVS
row,SMILES,IC50
1,CSc1ccc2c(c1)N(CCC1CCCCN1C)c1ccccc1S2 (stereo not drawn) [THIORIDAZINE],Not Active
2,NCCCC[C@H](N[C@@H](CCc1ccccc1)C(=O)O)C(=O)N1CCC[C@H]1C(=O)O [LISINOPRIL ANHYDROUS],Not Active
3,COc1cccc(C2(O)CCCCC2CN(C)C)c1 (stereo not drawn) [TRAMADOL],Not Active
4,O=C(CCCN1CCC(O)(c2ccc(Cl)cc2)CC1)c1ccc(F)cc1 [HALOPERIDOL],Not Active
5,CN1CCN2c3ccccc3Cc3ccccc3C2C1 (stereo not drawn) [MIANSERIN],Not Active

# Biological target: Nitric oxide synthase 1 (Rattus norvegicus, UniProt P29476); further: in other assays of this panel Not Active means under 50% inhibition at 10 µM
# Type: tissue-based, Cerebellum
# Conditions: not given
# Nitric oxide synthase 1, sequence (P29476 whole entry): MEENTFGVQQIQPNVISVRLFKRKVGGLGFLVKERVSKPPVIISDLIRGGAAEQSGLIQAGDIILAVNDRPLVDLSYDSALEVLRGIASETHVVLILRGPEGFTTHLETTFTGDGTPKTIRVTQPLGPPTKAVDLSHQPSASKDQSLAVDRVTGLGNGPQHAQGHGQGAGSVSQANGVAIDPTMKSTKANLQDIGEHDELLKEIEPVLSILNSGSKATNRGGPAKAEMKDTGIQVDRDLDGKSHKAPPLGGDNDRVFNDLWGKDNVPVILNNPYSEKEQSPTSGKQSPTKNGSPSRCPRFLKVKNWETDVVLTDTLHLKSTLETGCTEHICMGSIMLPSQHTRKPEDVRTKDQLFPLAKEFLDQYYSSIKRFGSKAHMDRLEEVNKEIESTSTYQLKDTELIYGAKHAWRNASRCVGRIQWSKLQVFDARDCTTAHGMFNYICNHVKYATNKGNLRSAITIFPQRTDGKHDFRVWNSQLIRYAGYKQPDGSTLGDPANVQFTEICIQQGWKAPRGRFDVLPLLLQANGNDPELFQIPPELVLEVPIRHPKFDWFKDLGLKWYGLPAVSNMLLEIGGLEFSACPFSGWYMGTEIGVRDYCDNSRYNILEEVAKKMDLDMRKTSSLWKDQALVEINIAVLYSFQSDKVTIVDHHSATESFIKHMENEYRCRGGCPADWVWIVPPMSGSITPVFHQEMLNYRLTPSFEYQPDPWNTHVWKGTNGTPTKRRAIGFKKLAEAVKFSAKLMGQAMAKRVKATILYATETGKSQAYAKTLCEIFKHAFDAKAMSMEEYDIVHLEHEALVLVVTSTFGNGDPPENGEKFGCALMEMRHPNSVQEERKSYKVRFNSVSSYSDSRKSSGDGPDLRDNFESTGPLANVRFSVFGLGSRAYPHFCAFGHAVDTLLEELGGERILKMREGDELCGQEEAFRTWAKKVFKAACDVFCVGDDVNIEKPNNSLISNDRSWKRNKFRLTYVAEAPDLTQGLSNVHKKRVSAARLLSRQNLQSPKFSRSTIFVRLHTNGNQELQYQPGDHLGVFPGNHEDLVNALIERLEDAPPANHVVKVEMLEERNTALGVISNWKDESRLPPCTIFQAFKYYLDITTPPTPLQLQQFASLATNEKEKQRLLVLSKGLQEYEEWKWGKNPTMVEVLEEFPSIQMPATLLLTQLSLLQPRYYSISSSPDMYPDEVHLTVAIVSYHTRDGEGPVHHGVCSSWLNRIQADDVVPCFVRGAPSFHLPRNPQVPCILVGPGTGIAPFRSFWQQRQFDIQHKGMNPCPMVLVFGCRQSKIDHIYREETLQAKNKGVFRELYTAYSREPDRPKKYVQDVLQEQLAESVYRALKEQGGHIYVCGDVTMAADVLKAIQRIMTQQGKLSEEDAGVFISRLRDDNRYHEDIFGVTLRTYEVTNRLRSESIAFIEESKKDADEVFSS
row,SMILES,IC50
1,CSc1ccc2c(c1)N(CCC1CCCCN1C)c1ccccc1S2 (stereo not drawn) [THIORIDAZINE],Not Active
2,NCCCC[C@H](N[C@@H](CCc1ccccc1)C(=O)O)C(=O)N1CCC[C@H]1C(=O)O [LISINOPRIL ANHYDROUS],Not Active
3,COc1cccc(C2(O)CCCCC2CN(C)C)c1 (stereo not drawn) [TRAMADOL],Not Active
4,O=C(CCCN1CCC(O)(c2ccc(Cl)cc2)CC1)c1ccc(F)cc1 [HALOPERIDOL],Not Active
5,CN1CCN2c3ccccc3Cc3ccccc3C2C1 (stereo not drawn) [MIANSERIN],Not Active

# Test system: not listed separately
# Experiment: DRUGMATRIX: Platelet-Derived Growth Factor (PDGF) radioligand binding (ligand: [125I] PDGF)
# Type: cell-based
# Conditions: nih3t3; Not Active = under 50% inhibition at 10 µM
SMILES,IC50,Ki
NCCCC[C@H](N[C@@H](CCc1ccccc1)C(=O)O)C(=O)N1CCC[C@H]1C(=O)O [LISINOPRIL ANHYDROUS],Not Active,Not Active

# Biological target: cGMP-specific 3',5'-cyclic phosphodiesterase (Homo sapiens, UniProt O76074)
# Experiment: DRUGMATRIX: Phosphodiesterase PDE5 enzyme inhibition (substrate: [3H]cGMP + cGMP)
# Type: tissue-based, Platelet
# Conditions: platelet; Not Active = under 50% inhibition at 10 µM
row,SMILES,IC50
1,CSc1ccc2c(c1)N(CCC1CCCCN1C)c1ccccc1S2 (stereo not drawn) [THIORIDAZINE],Not Active
2,NCCCC[C@H](N[C@@H](CCc1ccccc1)C(=O)O)C(=O)N1CCC[C@H]1C(=O)O [LISINOPRIL ANHYDROUS],Not Active
3,COc1cccc(C2(O)CCCCC2CN(C)C)c1 (stereo not drawn) [TRAMADOL],Not Active
4,O=C(CCCN1CCC(O)(c2ccc(Cl)cc2)CC1)c1ccc(F)cc1 [HALOPERIDOL],Not Active
5,CN1CCN2c3ccccc3Cc3ccccc3C2C1 (stereo not drawn) [MIANSERIN],Not Active
